Consider 4 compounds from patent US20070099871A1, “Bioreductively-activated prodrugs” (ANGIOGENE PHARMACEUTICALS LIMITED, priority 2003, published 2007).

Each structure is given as a SMILES string. Where two headings read alike, the source gives them in different places. Some results are limits rather than exact numbers.

The nature of data set [1]: Metabolism in liver homogenates. Format: in vitro ADME. The note with it: in air, mouse liver homogenate, NADPH, pH 7.4, 37° C. Here is the method:
Metabolic stability of the compounds and unfavorable release of the drug by oxic liver can be assessed by using, for example, this assay. Freshly-excised mouse liver (approximately 1 g) was homogenised in 15 ml of ice-cold 50 mmol d-3 potassium phosphate buffer at pH 7.4. The homogenates were centrifuged at 1000 RPM for 10 min and the supernatants stored on ice. The metabolism of […] prodrug in air was performed with 0.5 ml liver homogenate (∫4 mg of protein by Bradford assay) with 100 μmol dm^−3 NADPH in 50 mmol dm^−3 potassium phosphate buffer at pH 7.4 incubated at 37° C. Samples (60 μl) were taken at regular intervals and added to an equivalent volume of acetonitrile, then mixed and centrifuged at 14, 300 RPM for 2 min prior to product analysis by HPLC. In this test the compound of Example 1 produced combretastatin A4 at a rate of only 3 pmol·min^−1·mg protein^−1. In contrast the corresponding compound 1-(4-methoxy-3-(5-nitrothiene-2-yl)methoxy)phenyl-2-(3,4,5-trimethoxy)phenyl-Z-ethene, lacking the key features of the invention produced combretastatin at a greater rate of 20 pmol·min^−1·mg proteins^−1.

Data set [2] has as its target T1, Supersomal p450 reductase (Homo sapiens, UniProt P16435).
T1 construct: purchased Gentest P244
T1 sequence (P16435 1-677): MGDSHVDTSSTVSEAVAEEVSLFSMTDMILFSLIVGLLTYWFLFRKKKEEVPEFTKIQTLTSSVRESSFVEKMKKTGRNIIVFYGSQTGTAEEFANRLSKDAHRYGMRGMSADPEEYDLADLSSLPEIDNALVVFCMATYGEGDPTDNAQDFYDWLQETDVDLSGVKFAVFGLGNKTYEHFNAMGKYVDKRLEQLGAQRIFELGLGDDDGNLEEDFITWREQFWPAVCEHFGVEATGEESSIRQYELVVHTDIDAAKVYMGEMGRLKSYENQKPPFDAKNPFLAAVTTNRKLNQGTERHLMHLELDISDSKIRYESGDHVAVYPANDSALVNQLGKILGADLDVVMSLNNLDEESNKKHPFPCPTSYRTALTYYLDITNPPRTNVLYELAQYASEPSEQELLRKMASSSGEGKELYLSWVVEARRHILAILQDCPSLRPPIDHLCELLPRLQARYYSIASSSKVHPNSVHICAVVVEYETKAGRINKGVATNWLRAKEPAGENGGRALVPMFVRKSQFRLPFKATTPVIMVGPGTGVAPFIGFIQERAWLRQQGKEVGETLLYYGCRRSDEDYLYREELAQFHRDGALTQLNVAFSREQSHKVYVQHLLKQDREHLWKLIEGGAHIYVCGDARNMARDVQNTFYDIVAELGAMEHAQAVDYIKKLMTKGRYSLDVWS
In words: Drug release by cytochrome p450 reductase. It counts as biochemical. The conditions noted are these: NADPH, pH 7.4, 37° C. Here is the method:
Cytochrome p450 reductase is widely expressed in human tumours as well as in a range of normal tissues and is one of a number of enzymes that can catalyse bioreduction. […] Compounds were dissolved in DMSO to a concentration of 625 μM and 20 μL added to a mixture of 50 mmol dm^−3 potassium phosphate buffer at pH 7.4 (2.4 mL), NADPH (20 μL of a 10 mM solution) and 60 μL of Supersomal™ p450 reductase (Gentest; Catalogue number P244) and incubated at 37° C. For experiments under nitrogen the mixture was degassed with nitrogen for 20 minutes prior to compound addition and overgassed with nitrogen during the incubation. Samples (100 μl) were taken at regular intervals and added to an equivalent volume of acetonitrile, then mixed and centrifuged at 14, 300 RPM for 2 min prior to product analysis by HPLC. In this test the compound of Example 1 produced combretastatin A4 at a rate of […]·min^−1·mg protein^−1 under nitrogen but only 110 pmol·min^−1·mg protein^−1 under air.

Data set [3] relates to A549 cells. In words: Cellular cytotoxicity (Celltiter 96 MTS assay). It counts as cell-based. The conditions noted are these: A549, 6 h exposure then 72 h incubation. An excerpt: The cytotoxic or cytostatic properties of compounds of formula (1) and compounds of formula DrXH can be assessed for example, by use, for example, of this assay. The Celltiter 96® Aqueous One Solution Cell Proliferation Assay kit (Promega Corporation, USA) which is a colorimetric method for determining the number of viable cells in proliferation or cytotoxicity assays was used. In this assay the MTS tetrazolium compound (Owen's Reagent) is bioreduced by viable cells into a coloured formazan product which is soluble in tissue culture medium and can be measured by recording absorbance at 490 nm with a 96 well plate reader. A549 cells were seeded in Eagles Minimum Essential Medium supplemented with 10% foetal calf serum and non-essential amino acids at […] on a 96 well plate and allowed to attach for 24 h. Compounds were dissolved in DMSO and diluted with cell culture medium before addition. The cells were exposed to test compound (0 to 2 μmol dm^−3) for 6 h then incubated for a further 72 h. The MTS reagent was added to each well, left for 4 h, then the absorbance measured at 490 nm with a 96 well plate reader. In this assay the compound of Example 1 had no activity at concentrations up to […] whereas combretastatin A4 reduced cell numbers to 50% of control at a concentration of around 250 nM.

Regarding `COc1ccc(/C=C\c2cc(OC)c(OC)c(OC)c2)cc1OCc1ccc([N+](=O)[O-])s1` [1-(4-methoxy-3-(5-nitrothiene-2-yl)methoxy)phenyl-2-(3,4,5-trimethoxy)phenyl-Z-ethene], in data set [1], the “Rate of combretastatin A4 production” value is 20 pmol·min^−1·mg protein^−1.
As for `COc1ccc(/C=C\c2cc(OC)c(OC)c(OC)c2)cc1OC(C)(C)c1ccc([N+](=O)[O-])s1` [Example 1], the entries for the “Rate of combretastatin A4 production” value in data set [2] (under air) and in data set [2] (under nitrogen) were 110 pmol·min^−1·mg protein^−1 and 710 ppmol·min^−1·mg protein^−1, respectively. For the same compound, the IC50 in data set [3] (Homo sapiens, read-out: No activity at concentrations up to) was above 2000 nM.
`CC(C)(Sc1ncnc2[nH]cnc12)c1ccc([N+](=O)[O-])cc1` [Example 4, 6-(2-(4-nitrophenyl)propan-2-ylsulfanyl)-9H-purine]: the melting point was 206 to 208 °C.
For the compound `COc1ccc(/C=C\c2cc(OC)c(OC)c(OC)c2)cc1O` [combretastatin A4, reference compound], the IC50 in data set [3] (read-out: Concentration reducing cell numbers to 50% of control) is around 250 nM.
